Test results from patent publication US20060127381A1, “Live bacterial preparation of bacillus coagulans for the treatment of ulcerative colitis, method for producing the same and use thereof” (priority 2004, published 2006).
Marks after values point to notes of the source that are not given here.

System: experimental ulcerative colitis
Experiment: DSS modeling and treatment of experimental ulcerative colitis in rat
Assay type: in vivo, SD rat
Conditions: SASP 0.02 g/ml i.g., twice a day for 21 days
Experimental: The producing method of live bacteria preparation of Bacillus coagulans for the treatment of ulcerative colitis comprises following steps: incubating Bacillus coagulans by fermentation; drying bacteria slurry after centrifugation to obtain live bacteria powder, which is then prepared as suitable dosage forms. Ulcerative colitis is characterized in that pathological change mostly occurs at rectum and sigmoid flexure, or throughout the whole colon. A microscopic examination of colon can show mucosal blooding, edema, erosion or superficial ulcertion on affected intestine with mucus and inflammatory exudate covered thereon. Bleeding, inflammatory cell infiltration, epithelial cell decreasing, crypt collapsing and distorting, abscess formation are also often found in microscopic examination. Chronic ulcer may heal to form scar or pseudopolyp. Experimental study is to administrate dextran sodium sulfate (DSS) to SD rat by i.g. and rectal injection to induce experimental ulcerative colitis model, and then subject the modeled rat to experimental treatment with a live bacterial tablet of Bacillus coagulans, whereby the treatment effect of tablet is evaluated. The use is to apply the live bacterial tablet of Bacillus coagulans to clinically treat patients suffering from ulcerative colitis, whereby the efficacy and safety of the live bacterial preparation for UC patients is evaluated.
60 rats were kept under a sterile environment before test. Normal intestinal flora was taken from stools in the rats' anuses and incubated. 10 rats were taken as normal control and other 50 rats as experimental group. According a modified UC rat modeling method (Xiaoping Wu etc., Chinese Journal of Digestion, Vol. 23(5):305, 2003), 3% dextran sodium sulfate (DSS) solution was i.g. administrated to rats with empty stomachs (1 ml/100 g), once a day for 7 days. At the last time, 1 ml/rat of DSS was additionally injected into recta through anuses. After 7 days, stools were taken for flora analysis. 10 rats were then sacrificed and colons were removed by laparocolectomy. The wet weights of colons were measured (g/100 g body weight). The colons was fixed with formaldehyde and stained with alcian blue solution (Sino-American Biotec). The point counts of ulcer and erosion parts were observed by naked eye. Areas (cm^2) of the largest stained blue points were measured with calipers. After the confirmation of UC formation, rats were divided into 4 groups, 10 rats per group. The rats were administrated i.g. with live bacteria tablet of Bacillus coagulans(BC) (10^7 cfU/ml, 10^6 cfU/ml), 0.02 g/ml salicylazosulfapyridine (SASP) and normal saline solution (NS), respectively, twice a day for 21 days, afterwhich the stools were taken for flora analysis. Thereafter, all of the rats were sacrificed. Colon specimens were treated according to above method and corresponding indicators were determined. In addition, intestinal tissue masses were sampled to prepare 5% homogenates, which were determined for their activities of myeloperoxidase (MPO) (U/g·wet slice) with myeloperoxidase test kit (Nanjing JianCheng Bioengineering Institute) by ultraviolet spectrometry (Beijing Technical Application Institute).
The intestinal flora was incubated and analyzed as follows. Fresh stools were extruded out from rats' anuses under sterile condition before or after modeling and after treatment, respectively. […]

Compound: O=C(O)c1cc(/N=N/c2ccc(S(=O)(=O)Nc3ccccn3)cc2)ccc1O [SASP, salicylazosulfapyridine]
- Intestinal wet weight (g/100 g body weight): 0.54 ± 0.05**^Δ g/100 g body weight
- Ulcer or erosion points, Count of Points: 2.20 ± 0.79**^ΔΔ
- Ulcer or erosion points, area (cm^2): 0.22 ± 0.18**^Δ cm^2
- Body weight (g) After treatment (DSS-modeled rats): 264.00 ± 13.50 g
- MPO activity (U/g wet weight) (intestinal tissue homogenate): 0.20 ± 0.10**^ΔΔ U/g wet weight
